Laboratory results from paper PMC6580371 (ACS Medicinal Chemistry Letters, 2019).
Like-named read-outs stand apart in the source and are kept apart here.

Tests used:
[1] = in vivo; settings: dog, po, 2 mg/kg
[2] = format: in vitro ADME; settings: human
[3] = format: in vitro ADME; settings: monkey
[4] = format: in vivo; settings: all species (rat, dog, monkey)
[5] = in vivo; settings: monkey, iv
[6] = format: in vitro ADME; settings: rat

O=C(N[C@H]1CCc2cc(F)cc(F)c2NC1=O)c1n[nH]c(Cc2ccccc2)n1 [Compound 6, (S)-5-benzyl-N-(7,9-difluoro-2-oxo-2,3,4,5-tetrahydro-1H-benzo[b]azepin-3-yl)-1H-1,2,4-triazole-3-carboxamide]
Cmax [1]: 910 ± 130 ng/mL
turnover in hepatocytes [2]: low turnover
turnover in hepatocytes [3]: low turnover
predicted human clearance: low clearance
predicted human volume: moderate volume
predicted human AUC (40 mg twice daily): 1700 ng·h/mL
predicted human AUC (273 mg daily): 11700 ng·h/mL
predicted human terminal half-life (human): ~3.3 h
clearance as % liver blood flow [4]: ≤ 35 % liver blood flow
clearance [5]: 6.4 ± 0.5 mL/min/kg
turnover in hepatocytes [6]: moderate turnover
